Experiments:
[1] = tested on: HepG2 cell lysates; assay: MS-based ABPP to identify liganded cysteines in HepG2 cell lysates; type: biochemical, human; conditions: 10 μM, 1 h
Description: MS-Based ABPP Experiments to Identify Liganded Cysteines in HepG2 Cell Lysates by NAIA-5 or IAA.
HepG2 cells were lysed in PBS by sonication. After BCA assay and protein normalization, HepG2 cell lysates in PBS (2 mg/mL, 2 mL) were incubated with NAIA-5 and IAA (10 μM), respectively, at room temperature for 1 h with vortexing. Then, the samples were incubated with a master mix solution for CuAAC reaction, containing CuSO4, TBTA, DTB-PEG-azide and TECP (final concentrations are 1 mM, 100 μM, 100 μM and 1 mM respectively). After incubation at room temperature for 1 h with vortexing, pre-chilled acetone (12 mL) was added to the samples and proteins were allowed to precipitate out by storing at −20° C. overnight. The samples were centrifuged at 5,000 g at 4° C. for 10 min, and the supernatant was discarded. The protein pellets labeled by NAIA-5 and IAA were then combined and washed with pre-chilled methanol twice. The protein pellets were then re-dispersed in 1.2% SDS in PBS (w/v), followed by heating at 80° C. for 5 min. Any insoluble solids were discarded by centrifugation at 6,500 g for 5 min, and the supernatant were transferred to PBS solution containing Pierce™ Streptavidin Agarose beads (20349; Thermo Scientific) with final concentration of SDS equal to 0.2% (w/v). The samples and beads were incubated at 4° C. with rotation overnight. […]

[2] = tested on: HepG2 cells; assay: MTT cell viability assay; type: cell-based
Description: MTT Cell Viability Assay of Cells Treated with NAIA-5
HepG2 cells were plated on 96-well plates (Corning, 3904) at 30,000 cells per well in 100 μL of complete medium and allowed to grow overnight. The cells were then incubated with DMSO solvent control or NAIA-5 at indicated concentrations for 1 h. The treated cells were then added with 10 μL of MTT solution in PBS (5 mg/mL) and incubated in dark at 37° C. with 5% CO2 for 4 h. After that, 100 μL of SDS solution in PBS ([…] with 0.01M HCl) was added for cell lysis. The plates were kept in dark overnight and cell viability were assayed by the absorption at 580 nm on Perkin Elmer Victor 3 ([…]).

[3] = tested on: HepG2 cells; assay: MS-based ABPP, live-cell cysteine labeling of HepG2 cells; parameters: species or system human; conditions: 10 μM, 1 h
Description: MS-Based ABPP Experiments to Identify Liganded Cysteines in HepG2 Cells by Live-Cell Labeling Using NAIA-5 or IAA.
HepG2 cells were plated on 15 cm tissue culture plates and allowed to grow in complete medium at 37° C. with 5% CO2 to ca. 80% confluency. The cells were then treated with NAIA-5 and IAA (10 μM), respectively, in complete medium and incubated at 37° C. with 5% CO2 for 1 h. The cells were washed, scrapped in PBS and lysed by sonication. After BCA assay, the cell lysates were diluted to 2 mg/mL, and 2 mL of the lysates were used for n=1 sample preparation. The lysates were then subjected to CuAAC reaction with DTB-PEG-azide, acetone precipitation, enrichment by streptavidin beads, reduction by TCEP followed by cysteine carbamidomethylation and tryptic digestion according to the same procedure described for the sample preparation of HepG2 cell lysate experiment except no pairing of the NAIA-5- and IAA-labeled samples. The probe-modified peptides were then eluted by elution buffer solution (MeCN/H2O, 1:1, v/v; with 0.1% formic acid), dried, desalted by C18 Stage tips and sent for LC-MS/MS analysis using Aurora C18 UHPLC column (75 μm i.d.×25 cm length×1.6 μm particle size; IonOpticks, Australia) coupled to timsTOF Pro mass spectrometer (Bruker), with the same experimental settings as described for the experiment on HepG2 cell lysates. […]

## C#CCCCCNC(=O)COc1ccc2c(ccn2C(=O)C=C)c1 [NAIA-5]
[1]
  off-target labeling onto other amino acids: less undesired off-target labeling onto other amino acids as compared to IAA
[2]; 10 μM for 1 h
  cellular toxicity (in words): no significant cellular toxicity was found
[2]; MTT, 1 h incubation, read-out: IC50 (cytotoxicity)
  IC50: > 40 µM
[2]; treatment for 1 h
  cell viability (in words): no significant changes in viability of HepG2 cells
[3]
  number of labeled cysteines in live cells compared with IAA: higher number of labeled cysteines than IAA

Reference: patent US20240103005A1, “N-ACRYLOYLINDOLES AND METHODS OF USE” (The University of Hong Kong, priority 2022, published 2024)
